Common to all, as to test: cells
Type in all cases: functional, cell-based, Homo sapiens

One assay concerns OPM-2. To be noted: Homo sapiens, OPM-2.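 Note: growth of OPM-2 cells measured with a viability assay, IC50 for suppression of proliferation.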
The test system of the next assay is Kasumi 1. The conditions noted are these: Homo sapiens, Kasumi 1.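 Note: growth inhibition of human Kasumi-1 cells, read out by a cell viability assay.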
For a further assay, the system named is NCI-H1694. The conditions noted are these: Homo sapiens, NCI-H1694.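 Note: cell viability assay measuring inhibition of growth in human NCI-H1694 cells.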
The subject of another assay is CMK. The conditions noted are these: Homo sapiens, CMK.
Another assay has as its system SIMA. The conditions noted are these: Homo sapiens, SIMA.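 Note: growth inhibition of SIMA cells, measured with a cell viability readout.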
The subject of a further assay is SCC-3. The conditions noted are these: Homo sapiens, SCC-3.
A further assay relates to EHEB. The conditions noted are these: Homo sapiens, EHEB.
Another assay concerns SR. The conditions noted are these: Homo sapiens, SR.
A further assay has as its system SK-MM-2. The conditions noted are these: Homo sapiens, SK-MM-2.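 Note: growth inhibition of human SK-MM-2 cells, read out with a cell viability assay.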

pIC50: −log10 of the molar value.

Description for CMK: SANGER: Inhibition of human CMK cell growth in a cell viability assay.
Description for EHEB: SANGER: Inhibition of human EHEB cell growth in a cell viability assay.
Description for Kasumi 1: SANGER: Inhibition of human KASUMI-1 cell growth in a cell viability assay.
Description for NCI-H1694: SANGER: Inhibition of human NCI-H1694 cell growth in a cell viability assay.
Description for OPM-2: SANGER: Inhibition of human OPM-2 cell growth in a cell viability assay.
Description for SCC-3: SANGER: Inhibition of human SCC-3 cell growth in a cell viability assay.
Description for SIMA: SANGER: Inhibition of human SIMA cell growth in a cell viability assay.
Description for SK-MM-2: SANGER: Inhibition of human SK-MM-2 cell growth in a cell viability assay.
Description for SR: SANGER: Inhibition of human SR cell growth in a cell viability assay.

As to `CCN(CC)CCNC(=O)c1c(C)[nH]c(/C=C2\C(=O)Nc3ccc(F)cc32)c1C` [SUNITINIB], the pIC50 with OPM-2 is 5.51; with Kasumi 1, < 5.10; with NCI-H1694, < 5.10; with CMK, 5.71; with SIMA, < 5.10; in the assay on SCC-3, 5.55. Besides, the pIC50 in the assay on EHEB was < 5.10; in the assay with SR, 5.81; in the assay with SK-MM-2, 5.26.

`OCCCNc1cc(-c2ccnc(Nc3cccc(Cl)c3)n2)ccn1`: the negative logarithm of the IC50 (pIC50) in the assay on OPM-2 was 6.82; in the assay on Kasumi 1, < 6.59; in the assay on NCI-H1694 it was < 6.59; in the assay with CMK, < 6.59; in the assay on SIMA it was < 6.59; in the assay on SCC-3, 7.42. Further, the pIC50 in the assay on EHEB was 6.72; in the assay on SR it was 7.59; with SK-MM-2, 6.91.

Turning to `COc1cc2ncn(-c3cc(OCc4ccccc4C(F)(F)F)c(C(N)=O)s3)c2cc1OC` [GW843682X], the negative logarithm of the IC50 (pIC50) with OPM-2 is 7.35; in the assay on Kasumi 1, < 6.59; in the assay on NCI-H1694, 7.38; in the assay on CMK it was 7.44; with SIMA, < 6.59; with SCC-3, 7.31. The results for the negative-log IC50 (pIC50) in the assay on EHEB, in the assay on SR and in the assay with SK-MM-2 were < 6.59, 7.84 and < 6.59, respectively.

Regarding `CC(=O)O[C@H]1C(=O)[C@@]2(C)[C@H]([C@H](OC(=O)c3ccccc3)[C@]3(O)C[C@H](OC(=O)[C@H](O)[C@@H](NC(=O)c4ccccc4)c4ccccc4)C(C)=C1C3(C)C)[C@]1(OC(C)=O)CO[C@@H]1C[C@@H]2O` [PACLITAXEL], the negative-log IC50 (pIC50) with OPM-2 is 7.44; in the assay with Kasumi 1, < 6.99; in the assay on NCI-H1694, < 6.99; in the assay on CMK, 7.56; in the assay with SIMA it was < 6.99; with SCC-3 it was 7.92. The pIC50 with EHEB was < 6.99; with SR it was 7.99; with SK-MM-2, < 6.99.

With `COc1cc(-c2nn([C@H]3CC[C@H](N4CCN(C(C)=O)CC4)CC3)c3ncnc(N)c23)ccc1NC(=O)c1cc2ccccc2n1C`, the pIC50 with OPM-2, with Kasumi 1, in the assay with NCI-H1694, in the assay with CMK, in the assay with SIMA and in the assay on SCC-3 was < 5.29 each time. The negative-log IC50 (pIC50) in the assay on EHEB, in the assay on SR and with SK-MM-2 was < 5.29 in each case.

For the molecule `CC[C@H](CO)Nc1nc(NCc2ccccc2)c2ncn(C(C)C)c2n1` [SELICICLIB], the negative logarithm of the IC50 (pIC50) is < 4.80 in the assay on OPM-2; < 4.80 in the assay on Kasumi 1; < 4.80 in the assay on NCI-H1694; < 4.80 in the assay with CMK; < 4.80 with SIMA; 4.84 in the assay on SCC-3. In addition, the negative logarithm of the IC50 (pIC50) in the assay with EHEB, in the assay with SR and in the assay with SK-MM-2 was < 4.80 each time.

As to `COc1cc2ncn(-c3cc(OCc4ccccc4S(C)(=O)=O)c(C#N)s3)c2cc1OC` [GSK-319347A], the negative-log IC50 (pIC50) in the assay with OPM-2, with Kasumi 1, with NCI-H1694, with CMK, with SIMA and with SCC-3 was < 5.30 each time. Moreover, the pIC50 with SR and in the assay on SK-MM-2 was < 5.30 in each case.

With `N[C@@H](CSC(c1ccccc1)(c1ccccc1)c1ccccc1)C(=O)O` [S-TRITYL-L-CYSTEINE], the negative logarithm of the IC50 (pIC50) was 5.48 in the assay with OPM-2; < 5.29 with Kasumi 1; < 5.29 in the assay with NCI-H1694; 5.81 in the assay on CMK; < 5.29 in the assay with SIMA; 5.90 with SCC-3. Further, the figures for the pIC50 in the assay with EHEB, with SR and in the assay with SK-MM-2 were < 5.29, 6.14 and < 5.29, respectively.

As to `Cc1ccc(-c2c(C(=O)CCl)n(CCCO)c3ncnc(N)c23)cc1`, the negative-log IC50 (pIC50) with OPM-2, with Kasumi 1, in the assay on NCI-H1694, in the assay with CMK, in the assay with SIMA and in the assay with SCC-3 was < 5.40 each time. The pIC50 in the assay with EHEB, in the assay on SR and in the assay on SK-MM-2 was < 5.40 each time.

Turning to `C#Cc1cccc(Nc2ncnc3cc(OCCOC)c(OCCOC)cc23)c1` [ERLOTINIB], the pIC50 in the assay on OPM-2, in the assay with Kasumi 1, in the assay on NCI-H1694, in the assay with CMK, in the assay with SIMA and in the assay on SCC-3 was < 5.70 in each case. Moreover, the pIC50 with EHEB, in the assay with SR and in the assay with SK-MM-2 was < 5.70 each time.
